According to patent US11345675B2, “Compound, anti-allergy drug, and mediator release inhibitor” (LAIMU CORPORATION, priority 2018, dated 2022):
Entries after “also recorded” stand apart in the source; their conditions may differ.

What was measured:
[1] = tested on: rat basophilic leukemia cells RBL-2H3; assay: Degranulation inhibiting test (β-hexosaminidase release induced by antigen-antibody reaction); format: cell-based; conditions: RBL-2H3 cells, anti-DNP-IgE/DNP-HSA stimulation; compounds 1, 2 and 6-sPalm-AA-2G at 40, 60 or 80 μM, oxatomide 75 μM; FIG. 1
Experimental: In this Example, the compound 1 and the compound 2 were evaluated in terms of the effect thereof to inhibit degranulation to be induced by stimulation of an antigen-antibody reaction. Degranulation was quantified based on, as an index, β-hexosaminidase release from rat basophilic leukemia cells RBL-2H3. Specifically, β-hexosaminidase is an enzyme released through degranulation of mast cells or basocytes, and through enzymatic reaction with a substrate, p-nitrophenyl-2-acetamide-2-deoxy-β-glucopyranoside, this increases the absorbance at 405 nm of the reaction liquid. Here, the degranulation inhibiting effect was evaluated from the absorbance change as an index of β-hexosaminidase release amount (degree of degranulation).
The compound 1 and the compound 2 were individually dissolved in a 0.25% dimethyl sulfoxide-containing MT buffer at a concentration of 40 μM, 60 μM or 80 μM to prepare solutions to be evaluation samples. On the other hand, as comparative samples, 6-sPalm-AA-2G was dissolved in a 0.25% dimethyl sulfoxide-containing MT buffer at a concentration of 40 μM, 60 μM or 80 μM to prepare solutions, and oxatomide was dissolved in a 0.25% dimethyl sulfoxide-containing MT buffer at a concentration of 75 μM to prepare a solution. […]

[2] = tested on: PCA (passive cutaneous anaphylaxis) reaction; assay: PCA reaction inhibition test (Evans blue dye leakage in auricle); format: in vivo; conditions: applied to auricle of ICR male mice, 90 nmol/auricle (6-sPalm-AA-2G 150 nmol/auricle), 3.5 hours before DNP-HSA-Evans blue i.v.; FIG. 2
Experimental: In this Example, the anti-allergy activity of the compound 1 and the compound 2 was evaluated based on, as an index, the inhibiting effect thereof against PCA (passive cutaneous anaphylaxis) reaction. PCA reaction is a series of cell reaction of an allergy reaction including immobilization of mast cells via an Fc part of immunoglobulin, antigen-antibody reaction on the cells, release of inflammatory mediator from the mast cells through the reaction and promotion of vascular permeability. Here, after an anti-DNP-IgE antibody solution has been subcutaneously administered to a test body, a solution containing a 2,4-dinitrophenyl group (DNP)-labeled human serum albumin (HSA) and a dye (Evans blue) (DNP-HSA-Evans blue solution) is intravenously administered, and the vascular permeability increase according to the antigen-antibody reaction is quantified by the absorbance increase owing to dye leakage from the blood vessel to the tissue to thereby evaluate the PCA reaction inhibiting effect. […]
An aqueous 1 N potassium hydroxide solution (0.5 mL) was added to the thus-cut auricle, and shaken at 37° C. overnight. After shaking, a mixed solution (3.25 mL) of aqueous 0.34 M phosphoric acid solution/acetone=13/5 (v/v) was added, and centrifuged by 700×g at 4° C. for 20 minutes, and the absorbance at 620 nm of the supernatant was measured. […]

SMILES | β-hexosaminidase release inhibition ratio (degranulation inhibition ratio) [1] | dye leakage (relative absorbance at 620 nm, control = 100) [2]
CCCCCCCCCCCCCCCC(=O)OC[C@H](O)[C@H]1OC(=O)C(OC)=C1O [compound 1] | greatly higher than the degranulation inhibition ratio of the system added with 6-sPalm-AA-2G, and surpasses the degranulation inhibition ratio of the system added with oxatomide | lower than the dye leakage in the system with 6-sPalm-AA-2G
CCCCCCCCCCCCCCCC(=O)NC[C@H](O)[C@H]1OC(=O)C(OC)=C1O [compound 2] | greatly higher than the degranulation inhibition ratio of the system added with 6-sPalm-AA-2G, and surpasses the degranulation inhibition ratio of the system added with oxatomide; also recorded: tends to have a higher degranulation inhibiting effect than the compound 1 | lower than the dye leakage in the system with 6-sPalm-AA-2G; also recorded: suppressed more than that in the system where oxatomide had been applied; also recorded: tends to have a higher anti-allergy activity than the compound 1
